Assay [1] deals with transformed human keratinocyte cell line (FEP 1811). In words: Clonogenic survival cell culture assay for radioprotective activity (12 Gy 137Cs gamma irradiation). Type of assay: cell-based. The source says:
PF is defined as a ratio of survival at maximum protection Sm and survival after irradiation only So: PF=Sm/So. DMF is defined as a ratio of doses that result in survival level of Sm in the presence Dp and the absence Dc of radioprotector: DMF=Dp/Dc. DMF10 is define in a similar way except that instead of Sm a survival at 10 microM of radioprotector is used.
PF (Protection Factor) is defined as a ratio of survival at maximum protection Sm and survival after irradiation only So:PF=Sm/So. DMF (Dose Modification Factor) is defined as a ratio of doses that result in survival level of Sm in the presence (Dp) and the absence (Dc) of radioprotector: DMF=Dp/Dc. DMF10 is defined in a similar way except that instead of Sm a survival at 10 microM of radioprotector is used.
(§1) • i. […] In appropriate cases, tautomers are drawn to illustrate potential hydrogen-bond donating configurations into the minor groove of DNA. • ii. 2-Amino-4-(5′-(4″-methylpiperazin-1″-yl)benzimidazol-2′-yl)aniline was prepared by hydrogenation of 4-(5′-(4″-methylpiperazin-1″-yl)benzimidazol-2′-yl)-2-nitroaniline, using a modification of the method of Kelly et al, Aust. […] 2-Amino-4-(5′-(piperidin-1″-yl)benzimidazol-2′-yl)aniline was prepared by hydrogenation of 2-nitro-4-(5′-(piperidin-1″-yl)benzimidazol-2′-yl)aniline, using a modification of the method of Kelly et al, Aust. […] Ethyl 4-amino-3-nitrobenzenecarboximidate hydrochloride was prepared by reaction of 4-amino-3-nitrobenzonitrile with dry HCl gas in ethanol, using the method of Kelly et al, Aust. […] 5-(4′-Methylpiperazin-1′-yl)-2-nitroaniline was prepared using a modification of the method of Kelly et al, Aust. […] The following chemicals were obtained from the chemical suppliers indicated: 2-furaldehyde (Aldrich), 2-pyridinecarboxaldehyde (Aldrich), 3-fluoropyridine-2-carbaldehyde (Maybridge), 3-trifluoromethylpyridine-2-carboxaldehyde (Apollo Scientific), 6-methyl-2-pyridinecarboxaldehyde (Matrix Scientific), 5-methylpyridine-2-carbonitrile (Apollo Scientific), 4-methyl-2-pyridinecarbonitrile (Aldrich), 4-chloro-2-pyridinecarbonitrile (Aldrich), 4-methoxypicolinonitrile (Combi-Blocks), pyrazinecarbonitrile (Aldrich), 2-quinolinecarbonitrile (Aldrich), 3-isoquinolinecarbonitrile (Aldrich), 1-isoquinolinecarboxylic acid (Aldrich), indazole-3-carboxylic acid (Aldrich), 2-hydroxynicotinic acid (Aldrich), 4-hydroxypiperidine (Aldrich), 1-methylhomopiperazine (Aldrich), 3-hydroxypiperidine (Aldrich), 4-(N-BOC-amino)piperidine (Aldrich), 4-methoxypiperidine (Acros), 4-methyl-3-nitrobenzonitrile (Aldrich), 5-chloro-2-nitroaniline (Aldrich), 2-cyanopyridine (Aldrich), methyl 4-amino-2-methoxybenzoic acid (Aldrich), 4-(trifluoromethyl)-2-pyridinecarbonitrile (Matrix Scientific), cis-2,6-dimethylmorphoiline (Acros), 5-(trifluoromethyl)-2-pyridinecarbonitrile (Advanced Chemical Intermediates) and 5-fluoro-2-pyridinecarbonitrile (Advanced Chemical Intermediates). • ix. […] Melting points were determined using an Electrothermal melting point apparatus, and are uncorrected. […] The abbreviations s for singlet, d for doublet, t for triplet, q for quartet, br for broad and m for muitiplet were used in the assignments of multiplicity. A value approximating the centre of a multiplet is quoted. […] The addition of a few drops of acetic acid to methanol-d4 solutions was used to enhance solubility for the acquisition of ^13C nmr spectra. Mass spectra were recorded on a Micromass Quattro II mass spectrometer and accurate mass analyses were carried out by the School of Chemistry at the University of Melbourne on a Finnigan LTQ-FT model high resolution mass spectrometer. Thin layer chromatography (TLC) was carried out using Merck silica gel 60 F254 aluminium sheets or Merck neutral aluminium oxide 150 F254 sheets. Flash column chromatography was carried out using Ajax silica gel 230-400 mesh. • xi.

For assay [2] the test system is unchanged. In words: Clonogenic survival cell culture assay for cytotoxicity. Type of assay: cell-based. Particulars: un-irradiated keratinocytes, one hour drug exposure, colonies counted after eight days, read-out: C50 (concentration of radioprotector that results in 50% clonogenic survival). How it is done:
as §1, with “xi. […] The details are described in detail in Martin et al (4) (the disclosure of which is included herein in its entirety by way of reference), but briefly, mid-log phase monolayer cultures are incubated with various concentrations of the test drugs for one hour, after which the monolayers are washed and dispersed into single cell suspensions using pronase, and finally appropriate numbers of cells are dispensed into Petri dishes. Colonies are counted after eight days incubation. […] The irradiation (with a dose rate of 0.6 Gy per minute) is started 30 minutes after addition of the test drug. After completion of irradiation, incubation of cultures is continued until the total time of exposure to the drug reaches 60 minutes. Cultures are then washed and plated for clonogenic survival as described for the cytotoxicity experiments.” for “xi.”

The mark [3] stands for this setting: 12 Gy, 10 microM radioprotector.
Setting [4] is: 12 Gy, DMF=Dp/Dc at survival level Sm.
Where [5] appears, read: 12 Gy, survival at maximum protection vs irradiation only.
[6] abbreviates: Homo sapiens, Keratinocyte, light or radiation study.

Where two headings read alike, the source gives them in different places.

On to “2-(5′-(5″-(2′″-(dimethylamino)ethoxy)benzimidazol-2″-yl)benzimidazol-2′-yl)pyridine [Example 44]”, for which, in assay [1], the “DMF10 (dose modification factor at a concentration of 10 microM of radioprotector)” value (“DMF10” for short) worked out at 1.50, the “DMFm (dose modification factor at maximum protection)” value (“DMFm” below) came out at 1.88 and the “PF (protection factor = Sm/So)” value came out at 17.6. Also, the IC50 in assay [2] stood at 146 µM.
For the molecule “2-(5′-(5″-(4′″-methylpiperazin-1′″-yl)-1H-indol-2″-yl)benzimidazol-2′-yl)pyridine [Example 53]”, the “DMF10” value in assay [1] (setting [3]) is reported as 1.21. Also, the “DMFm” value in assay [1] (setting [4]) was 1.30. Moreover, the “PF (protection factor = Sm/So)” value in assay [1] (setting [5]) amounted to 4.9. For the same molecule, in assay [2], the IC50 turned out to be 34.1 µM.
On to `Cc1cccc(-c2nc3ccc(-c4nc5ccc(N6CCN(C)CC6)cc5[nH]4)cc3[nH]2)n1` [Example 5, 6-Methyl-2-(5′-(5″-(4′″-methylpiperazin-1′″-yl)benzimidazol-2″-yl)benzimidazol-2′-yl)pyridine], for which the “DMF10” value in assay [1] (setting [3]) was determined as 1.12. Moreover, the “DMFm” value in assay [1] (setting [4]) is recorded as 1.22. Besides, the “PF (protection factor = Sm/So)” value in assay [1] (setting [5]) was found to be 2.5. For the same molecule, the IC50 in assay [2] (setting [6]) worked out at 73.3 µM.
As for `CN1CCN(c2ccc3[nH]c(-c4ccc5[nH]c(-c6ccc7ccccc7n6)nc5c4)nc3c2)CC1` [Example 13, 2-(5′-(5″-(4′″-Methylpiperazin-1′″-yl)benzimidazol-2″-yl)benzimidazol-2′-yl)quinoline], the “DMF10” value in assay [1] (setting [3]) was 1.65. Besides, in assay [1] (setting [4]), the “DMFm” value came out at 1.66. Besides, in assay [1] (setting [5]), the “PF (protection factor = Sm/So)” value amounted to 11.0. In assay [2], the IC50 came out at 14 µM.
Regarding `CN1CCN(c2ccc3[nH]c(-c4ccc5[nH]c(-c6nn(C)c7ccccc67)nc5c4)nc3c2)CC1` [Example 17, 1-methyl-3-(5′-(5″-(4′″-methylpiperazin-1′″-yl)benzimidazol-2″-yl)benzimidazol-2′-yl)indazole], the “DMF10” value in assay [1] (setting [3]) is 1.27. In assay [1] (setting [4]), the “DMFm” value worked out at 1.68. The “PF (protection factor = Sm/So)” value in assay [1] (setting [5]) was found to be 10.9. For the same molecule, in assay [2], the IC50 came out at 76.5 µM.
Consider `CCCCN1CCN(c2ccc3nc(-c4ccc5nc(-c6ccccn6)[nH]c5c4)[nH]c3c2)CC1` [Example 34, 2-(5′-(5″-(4′″-Butylpiperazin-1′″-yl)benzimidazol-2″-yl)benzimidazol-2′-yl)pyridine], for which the “DMF10” value in assay [1] (setting [3]) is given as 2.05. The “DMFm” value in assay [1] (setting [4]) worked out at 2.27. Besides, the “PF (protection factor = Sm/So)” value in assay [1] (setting [5]) was 27.6. Further, the IC50 in assay [2] (setting [6]) stood at 47 µM.
For `COCCNc1ccc2[nH]c(-c3ccc4nc(-c5ccccn5)[nH]c4c3)nc2c1` [Example 35, 2-(5′-(5″-(2′″-methoxyethylamino)benzimidazol-2″-yl)benzimidazol-2′-yl)pyridine], in that order: 1.66, 2.19, 21.9 and 126 µM.
For `c1ccc(-c2nc3ccc(-c4nc5ccc(N6CCSCC6)cc5[nH]4)cc3[nH]2)nc1` [Example 36, 2-(5′-(5″-thiomorpholinobenzimidazol-2″-yl)benzimidazol-2′-yl)pyridine] the same measures were 1.49, 1.53, 16.4 and 31.3 µM.
As for `CN(C)C(=O)N1CCN(c2ccc3[nH]c(-c4ccc5[nH]c(-c6ccccn6)nc5c4)nc3c2)CC1` [Example 37, 2-(5′-(5″-(4′″-(dimethylcarbamoyl)piperazin-1 ′″-yl)benzimidazol-2″-yl)benzimidazol-2′-yl)pyridine], the “DMF10” value in assay [1] (setting [3]) came to 1.49. For the same molecule, the “DMFm” value in assay [1] (setting [4]) amounted to 1.82. Also, in assay [1] (setting [5]), the “PF (protection factor = Sm/So)” value was 34.6. Further, the IC50 in assay [2] was found to be 120 µM.
As for `COCCN1CCN(c2ccc3nc(-c4ccc5nc(-c6ccccn6)[nH]c5c4)[nH]c3c2)CC1` [Example 40, 2-(5′-(5″-(4′″-(2″″-methoxyethyl)piperazin-1′″-yl)benzimidazol-2″-yl)benzimidazol-2′-yl)pyridine], the “DMF10” value in assay [1] (setting [3]) is listed as 1.77. The “DMFm” value in assay [1] (setting [4]) stood at 198. In assay [1] (setting [5]), the “PF (protection factor = Sm/So)” value is 20.2. Also, the IC50 in assay [2] (setting [6]) came out at 80.7 µM.
Consider `CN(C)CCNc1ccc2[nH]c(-c3ccc4[nH]c(-c5ccccn5)nc4c3)nc2c1` [Example 43, 2-(5′-(5″-(2′″-(dimethylamino)ethylamino)benzimidazol-2″-yl)benzimidazol-2′-yl)pyridine], for which the “DMF10” value in assay [1] (setting [3]) stood at 1.28. Also, the “DMFm” value in assay [1] (setting [4]) was determined as 1.61. Besides, the “PF (protection factor = Sm/So)” value in assay [1] (setting [5]) is 11.2. The IC50 in assay [2] is 118 µM.
